From patent US5304548A, “Bivalent ligands effective for blocking ACAT enzyme for lowering plasma triglycerides and for elevating HDL cholesterol” (The Upjohn Company, priority 1992, dated 1994)
Values after ≈ are worked out from the molar mass of the structure shown. “Also recorded” adds a separate entry of the source.

Assays:
[1] = tested on: acyl-CoA: cholesterol O-acyltransferase enzyme (ACAT); assay: Inhibition of cellular ACAT (esterification of 3H-cholesterol taken up by cells); settings: for IC50: ACAT inhibition; for ACAT inhibition, result in words: comparison bivalent vs. monomeric / by dose
[2] = Antiatherosclerotic activity, SEA quail on high cholesterol diet, oral compound, arteries analysed after eight weeks; format: in vivo, SEA Japanese quail; settings: statistically significant
Method: For example, five to six week old, male, SEA quails were placed on a high cholesterol diet with one group orally receiving the subject ACAT inhibitor compound Ia (Table 2). After eight weeks the arteries were removed, cleaned and homogenized. Total cholesterol, free cholesterol and triglycerides were measured.

[3] = Antiatherosclerotic activity, Netherland dwarf rabbits on cholesterol-containing atherogenic diet, twelve weeks; format: in vivo, Netherland dwarf rabbit; settings: 50 mg/kg/day
Method: In another experiment, ACAT inhibitor compound Ia (Table 2) was administered for twelve weeks at 50 mg/kg/day to Netherland dwarf rabbits that were feed a cholesterol-containing atherogenic diet. During the twelve week period serum cholesterol, triglycerides, and carnitine were monitored. At the end of the study the aortas from the drug treated group and a non-drug treated group were examined for atherosclerosis development.

[4] = Hypertriglyceridemia model, female Zucker rats (fafa), compound in chow with cross-over; format: in vivo, Zucker rat
Method: Female Zucker rats (fafa, 378±3) were maintained on a pelleted chow diet (Purina Chow #5001) or the chow diet which contained Compound Ia (Ia) at a level calculated to deliver 50 mg/kg/day. The Ia containing pellets were prepared from #5001 meal into which the drug had been pre-mixed and subsequently pelletized. […] The plasma was obtained from heparinized blood taken by cardiac puncture and the lipids were measured using an Ektachem DT60 analyzer (Eastman Kodak).

[5] = Hypercholesterolemic model, obese female Zucker rats (fa/fa), dose response of plasma lipids after 1 week; format: in vivo, Zucker rat; settings: genetically obese Zucker rats
Method: Obese female Zucker rats (fa/fa) weighing 500-600 g were used in the study. These animals are endogenously hypertriglyceridemic and hypercholesterolemic as was described above. Basal plasma triglycerides, cholesterol, and HDL-C levels were determined in individual rats (Ektachem DT 60 Analyzer) which were then randomly assigned to four Compound Ia (Ia) treatment groups (5 mg/kg, n=4; 10 mg/kg, n=4; 20 mg/kg, n=4; 30 mg/kg, n=3). The animals were all individually housed and received Purina Chow pellets (#5002) containing IA at levels calculated to provide the daily doses of Ia described above. After 1 week, all rats were bled by cardiac puncture for determination of plasma triglycerides, cholesterol, and HDL-C. An additional group of rats (n=3) receiving chow alone was run in parallel with the treatment groups as an additional control for the experiment. Each animal acted as its own control since plasma lipid parameters were measured in each animal immediately prior to dosing. The data for triglycerides, cholesterol, and HDL-C were adjusted for this pre-dosing value using a percent change calculation: ((Post-Pre)/Pre)100 . For all 3 measurements, a simple linear model was fit to the percent change value vs log 10 (dose). The logarithmic transformation was used to linearalize the relationship.

[6] = Plasma triglycerides in rats or rabbits whose triglycerides are within normal limits; format: in vivo; settings: rats or rabbits with triglycerides within normal limits

Row | SMILES | % ACAT Inhibition ([1]; 5 μg/ml) [%] | % ACAT Inhibition ([1]; 10 μg/ml) [%] | % ACAT Inhibition ([1]; 15 μg/ml) [%] | also measured
1 | COc1c2c(c(OC)c3occc13)OC(=CNCCCN1CCN(CCCNC=C3Oc4c(c(OC)c5ccoc5c4OC)C3=O)CC1)C2=O [Compound VIII] | 32 | 41 | 49 | 
2 | COc1c2occc2c(OC)c2c(=O)cc(CN3CCN(CCN4CCN(Cc5cc(=O)c6c(OC)c7ccoc7c(OC)c6o5)CC4)CC3)oc12 [Compound Ib] | 5 | 6 | 2 | 
3 | COc1c2oc([Si](C)(C)C)cc2c(OC)c2c(=O)cc(CN3CCC(CCC4CCN(Cc5cc(=O)c6c(OC)c7cc([Si](C)(C)C)oc7c(OC)c6o5)CC4)CC3)oc12 [Compound VI] | 18 | 29 | 52 | 
4 | COc1c2c(c(OC)c3c(=O)cc(CN4CCC(CCC5CCN(Cc6cc(=O)c7c(OC)c8c(c(OC)c7o6)OCC8)CC5)CC4)oc13)CCO2 [Compound V, 7,7'-(1,2-Ethanediylbis(4,1-piperidinediylmethylene))bis-2,3-dihydro-4,9-dimethoxy-5H-furo(3.2-g)(1)benzopyran-5-one] | 63 | 73 | 74 | IC50 [1]: 3.0 µg/mL (≈ 4.19 µM)
5 | COc1c2occc2c(OC)c2c(=O)cc(CN3CCC(C)CC3)oc12 [IV, reference compound] | 10 | 27 | 39 | ACAT inhibition, result in words [1]: reduced percent ACAT inhibition
6 | COc1c2c(c(OC)c3occc13)OC(=CNC1CCCCC1)C2=O [reference compound] | 47 | 55 | 65 | 
7 | COc1c2occc2c(OC)c2c(=O)cc(CN3CCC(CCC4CCN(Cc5cc(=O)c6c(OC)c7ccoc7c(OC)c6o5)CC4)CC3)oc12 [Compound Ia] | 87 | 84 | 75 | reduction in the accumulation of esterified cholesterol in the arteries [2]: thirty; mean serum cholesterol level ([3]; control exceeded 2200 mg/dl): 271 mg/dL; atheromatous lesion development ([3]; extensive in controls): negligible atheromatous lesion development; development of hypercholesterolemia ([3]; vs. control): less extensive development of hypercholesterolemia; mean plasma cholesterol ([4]; Ia administration, 50 mg/kg/day, from 126±18): 174 ± 8 mg/dL; plasma cholesterol, cross-over ([4]; controls crossed over to Ia at day 27, from 118±24, three of four animals increased): 164 ± 22 mg/dL; plasma triglycerides, cross-over ([4]; controls crossed over to Ia, 5 day cross-over period, from 2872±742): 656 ± 242 mg/dL; plasma cholesterol after withdrawal ([4]; drug withdrawn day 16): restored essentially to pretreatment levels; plasma triglycerides after withdrawal ([4]; drug withdrawn on day 16, within 1 week): essentially returned to pretreatment levels within 1 week; plasma triglycerides, lowest level reached ([4]; from levels as high as 3000 mg/dl): less than 300 mg/dl; plasma triglycerides ([4]; within 8 days of addition to diet, 50 mg/kg/day, from group mean 2431±446): 260 ± 52 mg/dL; plasma HDL cholesterol, result in words [5]: dose dependent elevation of plasma HDL cholesterol; also recorded: significant linear positive relationship between the % change HDL-C and log 10 (dose); also recorded: ability to elevate HDL-cholesterol; plasma total cholesterol, result in words [5]: without significant changes in plasma total cholesterol; also recorded: hypotriglyceridemic effect can be dissociated from a tendency to elevate plasma cholesterol; plasma triglycerides, result in words [5]: dose-dependent reduction in plasma triglycerides; also recorded: significant negative relationship between % change in plasma triglycerides and log 10 (dose); also recorded: confirmed the triglyceride lowering activity; effect on plasma triglyceride levels [6]: very little effect on plasma triglyceride levels; IC50 [1]: 0.8 µg/mL (≈ 1.12 µM)
8 | COc1c2c(c(OC)c3occc13)OC(=CN1CCC(CCCC3CCN(C=C4Oc5c(c(OC)c6ccoc6c5OC)C4=O)CC3)CC1)C2=O [Compound VII] |  |  |  | ACAT inhibition, result in words [1]: active at the high dose tested (15 μg/ml)
9 | COc1c2occc2c(OC)c2c(=O)cc(CN3CCC(CCCC4CCN(Cc5cc(=O)c6c(OC)c7ccoc7c(OC)c6o5)CC4)CC3)oc12 [Compound I] | 68 | 84 | 91 | IC50 [1]: 4.2 µg/mL (≈ 5.78 µM); ACAT inhibition, result in words [1]: enhanced potency
10 | COc1c2occc2c(OC)c2c(=O)cc(CN3CCC(C4CCN(Cc5cc(=O)c6c(OC)c7ccoc7c(OC)c6o5)CC4)CC3)oc12 [Compound Id] | 0 | 0 | 0 | 
11 | COc1c2occc2c(OC)c2c(=O)nc(N3CCC(CCCC4CCN(c5nc(=O)c6c(OC)c7ccoc7c(OC)c6o5)CC4)CC3)oc12 [Compound II] | 60 | 89 | 97 | IC50 [1]: 1.8 µg/mL (≈ 2.57 µM)
12 | COc1c2c(c(OC)c3occc13)OC(=CNCCCCCCCCNC=C1Oc3c(c(OC)c4ccoc4c3OC)C1=O)C2=O [Compound IX] | 63 | 52 | 51 | ACAT inhibition, result in words [1]: excellent inhibition over its monomeric counterparts; also recorded: surprisingly good inhibitory activity even at the 5 μg/ml dose
13 | COc1c2occc2c(OC)c2c(=O)cc(CN3CCN(CC(O)CN4CCN(Cc5cc(=O)c6c(OC)c7ccoc7c(OC)c6o5)CC4)CC3)oc12 [Compound Ic] | 7 | 13 | 15 | 
14 | COc1c2c(c(OC)c3occc13)OC(=CNCc1ccccc1)C2=O [reference compound] | 50 | 66 | 78 | 
15 | COc1c2c(c(OC)c3occc13)OC(=CN1CCC(CCCC3CCN(C=C4Oc5c(c(OC)c6ccoc6c5OC)C4=O)CC3)CC1)C2=O [Compound III] | 18 | 29 | 52 | 
